Results published in patent US6552077B2, “Albumin-binding compounds that prevent nonenzymatic glycation and that may be used for treatment of glycation-related pathologies” (Exocell, Inc., priority 1996, dated 2003).
Structures can show the parent of a compound that is named as a salt.

How the values were obtained:
cyclo-oxygenase = target: T1, cyclo-oxygenase (Bos taurus, UniProt O62664); assay: Cyclo-oxygenase inhibition, conversion of arachidonic acid to prostaglandin E2 in bovine seminal vesicle homogenates; format: biochemical; details: arachidonic acid to prostaglandin E2, 1-30 minutes, read-out: COX Inhibition IC50
T1 construct: from tissue; host or cells: bovine seminal vesicles (cellular homogenate)
T1 sequence (O62664 25-600): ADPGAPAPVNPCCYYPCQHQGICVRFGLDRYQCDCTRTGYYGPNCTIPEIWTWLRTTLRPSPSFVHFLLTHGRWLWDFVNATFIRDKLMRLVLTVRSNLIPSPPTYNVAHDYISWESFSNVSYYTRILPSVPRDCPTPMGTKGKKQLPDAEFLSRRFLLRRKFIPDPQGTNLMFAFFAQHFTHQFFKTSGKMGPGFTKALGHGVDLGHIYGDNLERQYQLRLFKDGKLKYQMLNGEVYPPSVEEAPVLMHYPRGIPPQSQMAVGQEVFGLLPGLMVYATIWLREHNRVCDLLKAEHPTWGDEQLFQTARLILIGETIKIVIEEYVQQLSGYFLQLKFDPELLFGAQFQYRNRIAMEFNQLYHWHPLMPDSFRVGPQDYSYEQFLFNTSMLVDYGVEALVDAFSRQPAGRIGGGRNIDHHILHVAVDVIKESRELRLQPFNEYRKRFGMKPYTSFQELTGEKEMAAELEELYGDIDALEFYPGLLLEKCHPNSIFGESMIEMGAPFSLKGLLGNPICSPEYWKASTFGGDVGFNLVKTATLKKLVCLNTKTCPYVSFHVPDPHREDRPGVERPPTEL
Method: Cellular homogenates of bovine seminal vesicles were incubated with arachidonic acid and the production of prostaglandins was monitored.

Human albumin [1] = target: T2, Human albumin (Homo sapiens, UniProt P02768); assay: Anti-glycation activity of 2-(phenylamino)phenylacetic acids (glycated albumin ELISA); format: biochemical; details: for IC50: human albumin 10 mg/ml, 0-50 mM glucose, 48-144 hours, 37° C., read-out: Glycation Inhibition IC50; for Antiglycation IC50 versus COX Inhibition IC50 (ratio): ratio of glycation IC50 to cyclo-oxygenase IC50
T2 sequence (P02768 25-609): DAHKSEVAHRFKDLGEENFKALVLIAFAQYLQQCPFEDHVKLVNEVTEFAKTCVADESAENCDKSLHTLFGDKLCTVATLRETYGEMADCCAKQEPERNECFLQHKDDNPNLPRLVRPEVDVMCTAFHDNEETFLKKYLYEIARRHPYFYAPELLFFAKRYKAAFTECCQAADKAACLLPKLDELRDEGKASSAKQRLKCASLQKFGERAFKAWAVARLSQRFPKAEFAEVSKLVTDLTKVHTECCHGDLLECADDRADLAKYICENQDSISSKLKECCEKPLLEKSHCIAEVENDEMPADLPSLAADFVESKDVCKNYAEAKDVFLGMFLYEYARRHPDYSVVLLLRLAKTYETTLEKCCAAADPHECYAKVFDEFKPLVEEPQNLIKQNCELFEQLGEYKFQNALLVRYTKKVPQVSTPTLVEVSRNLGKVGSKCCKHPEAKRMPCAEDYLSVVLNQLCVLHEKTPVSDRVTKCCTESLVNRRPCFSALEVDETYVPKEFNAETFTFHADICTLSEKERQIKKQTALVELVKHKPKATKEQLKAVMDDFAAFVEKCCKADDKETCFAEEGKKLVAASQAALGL
Method: After dialysis to remove free glucose and compound, the amount of glycated albumin formed was determined by enzyme-linked immunosorbent assay using the monoclonal antibodies known to specifically react with Amadori-glucose adducts in glycated albumin and to be unreactive with the nonglycated protein. The presence of glucose in the incubations promotes the nonenzymatic glycation of albumin, and the performance of paired incubations allows comparison of the amount of glycated albumin formed under control (0 glucose), stimulated (25-50 mM glucose), and inhibited (compound plus glucose) conditions.

glycated albumin = target: T3, glycated albumin (Mus musculus, UniProt P07724); assay: Prevention of albumin glycation in vivo, plasma glycated albumin by ELISA; details: mice; for Glycated Albumin, Percent change: post vs pre-treatment; for Glycated Albumin, Post-treatment: four hours after last dosing; for Glycated Albumin, Pre-treatment: before treatment
T3 construct: from tissue; host or cells: mouse plasma (in vivo dosing)
T3 sequence (P07724 25-608): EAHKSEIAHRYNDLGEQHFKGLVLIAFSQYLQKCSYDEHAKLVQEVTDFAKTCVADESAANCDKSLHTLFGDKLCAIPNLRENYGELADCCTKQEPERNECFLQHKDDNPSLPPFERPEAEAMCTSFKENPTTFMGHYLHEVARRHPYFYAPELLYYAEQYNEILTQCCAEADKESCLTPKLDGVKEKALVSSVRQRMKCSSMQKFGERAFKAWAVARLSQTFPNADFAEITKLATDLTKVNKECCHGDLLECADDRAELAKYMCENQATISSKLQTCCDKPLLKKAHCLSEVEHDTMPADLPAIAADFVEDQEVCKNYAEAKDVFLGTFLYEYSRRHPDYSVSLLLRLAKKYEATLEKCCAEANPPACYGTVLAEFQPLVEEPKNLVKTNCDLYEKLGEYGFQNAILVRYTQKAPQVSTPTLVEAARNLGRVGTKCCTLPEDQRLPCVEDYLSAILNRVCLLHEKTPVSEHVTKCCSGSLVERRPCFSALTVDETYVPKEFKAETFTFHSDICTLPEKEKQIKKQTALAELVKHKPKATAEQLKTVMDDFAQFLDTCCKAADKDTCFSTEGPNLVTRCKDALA
Source text: Blood was taken before the initiation of treatment and four hours after the last dosing at the conclusion of the treatment.

Mice = assay: Urine protein excretion after 8 weeks of treatment; format: in vivo
Method: Mice were treated for 8 weeks with 10 mg/kg/day of 2-(3-chlorophenylamino) phenylacetic acid in divided doses. Urine samples were obtained at the initiation and termination of treatment for examination of protein excretion, which measures vascular dysfunction that is associated with glycation-related pathology As shown below, the reduction in glycated albumin was associated with a reduction in urine protein excretion.

Human albumin [2] = target: T2, Human albumin; assay: Prevention of albumin glycation at physiologically significant sites (ELISA with anti-glycated albumin monoclonal antibody); format: biochemical; details: for IC50: human albumin 10 mg/ml, 40 mM glucose, 4 days, compound 1-1000 μM
Method: The performance of paired incubations allowed comparison of the amount of glycated albumin formed under control (0 mM glucose), stimulated (40 mM glucose) and inhibited (test compound plus glucose) conditions.

[3] = 5 mg/kg/day intraperitoneal for 5 days
[4] = 5 mg/kg/day intraperitoneal in divided doses for 5 days
[5] = 10 mg/kg/day intraperitoneal for 5 days
[6] = 10 mg/kg/day intraperitoneal in divided doses for 5 days

Row | SMILES | IC50 (cyclo-oxygenase) | IC50 (Human albumin [1]) | Antiglycation IC50 versus COX Inhibition IC50 (ratio) (Human albumin [1]) | further results
1 | O=C(O)Cc1ccccc1Nc1cccc(Cl)c1 (as salt: salt) [Example 5, 2-[(3-chlorophenyl)amino]phenylacetic acid] |  |  |  | melting point: 102 to 103 °C
2 | O=C(O)Cc1ccccc1Nc1ccccc1 [Example 3, 2-[(phenyl)amino]phenylacetic acid] | 288 µM | 155 µM | 0.54 | 
3 | O=C(O)Cc1ccccc1Nc1ccccc1Cl [Example 4, 2-[(2-chlorophenyl)amino]phenylacetic acid] | 42 µM | 10 µM | 0.24 | Glycated Albumin, Percent change (glycated albumin; [3]): −32.5%; Glycated Albumin, Post-treatment (glycated albumin; [4]): 500 µg/mL; Glycated Albumin, Percent change (glycated albumin; [5]): −47.7%; Glycated Albumin, Post-treatment (glycated albumin; [6]): 426 µg/mL; Glycated Albumin, Pre-treatment (glycated albumin; 5 mg/kg/day group): 741 µg/mL; Glycated Albumin, Pre-treatment (glycated albumin; 10 mg/kg/day group): 815 µg/mL
4 | O=C(O)Cc1ccccc1Nc1cccc(Cl)c1 [Example 5, 2-[(3-chlorophenyl)amino]phenylacetic acid] | 600 µM | 50 µM | 0.08 | Glycated Albumin, Percent change (glycated albumin; [3]): −18.4%; Glycated Albumin, Post-treatment (glycated albumin; [4]): 697 µg/mL; Glycated Albumin, Percent change (glycated albumin; [5]): −45.6%; Glycated Albumin, Post-treatment (glycated albumin; [6]): 352 µg/mL; Glycated Albumin, Pre-treatment (glycated albumin; 5 mg/kg/day group): 854 µg/mL; Glycated Albumin, Pre-treatment (glycated albumin; 10 mg/kg/day group): 647 µg/mL; Urine protein, Termination (Mice; after 8 weeks of 10 mg/kg/day in divided doses): 2.7 μg/24 hrs; Urine protein, Initiation (Mice; at initiation of treatment (baseline)): 7.6 μg/24 hrs; ability to prevent glycation of the physiologically important sites (Human albumin [2]; comparison among the compounds of Table 1): greatest ability to prevent glycation; IC50 (Human albumin [2]): 15 µM
5 | CC1=C(CC(=O)O)c2cc(F)ccc2/C1=C\c1ccc([S+](C)[O-])cc1 (stereo not drawn) [[Z]-5-fluoro-2-methyl-1 [p-(methylsulfinyl)phenyl] (methylene-1H-indene-3-acetic acid, reference compound] |  |  |  | IC50 (Human albumin [2]): 22000 µM

Continued, in another order:

Row | IC50 (cyclo-oxygenase) | IC50 (Human albumin [1]) | Antiglycation IC50 versus COX Inhibition IC50 (ratio) (Human albumin [1]) | SMILES | further results
6 | 98 µM | 11 µM | 0.11 | O=C(O)Cc1ccccc1Nc1ccc(Cl)cc1 [Example 6, 2-[(4-chlorophenyl)amino]phenylacetic acid] | 
7 | 71 µM | 63 µM | 0.90 | O=C(O)Cc1ccccc1Nc1ccc(Cl)cc1Cl [Example 8, 2-[(2,4-dichlorophenyl)amino]phenylacetic acid] | 
8 | 141 µM | 2.5 µM | 0.02 | O=C(O)Cc1ccccc1Nc1ccc(Cl)c(Cl)c1 [Example 11, 2-[(3,4-dichlorophenyl)amino]phenylacetic acid] | 
9 | 6 µM | 112 µM | 19.0 | Cc1cccc(C)c1Nc1ccccc1CC(=O)O [Example 13, 2-[(2,6-dimethylphenyl)amino]phenylacetic Acid] | 
